Drawing on patent publication US12129237B2, “Substituted diaminocarboxamide and diaminocarbonitrile pyrimidines, compositions thereof, and methods of treatment therewith” (SIGNAL PHARMACEUTICALS, LLC, priority 2011, dated 2024), this text covers IC50 for 36 compounds.

Molecules are shown by their SMILES.

In the first experiment the target is T1, JNK1 (Homo sapiens, UniProt P45983).
T1 construct: purchased Carna Biosciences
T1 sequence (P45983 whole entry): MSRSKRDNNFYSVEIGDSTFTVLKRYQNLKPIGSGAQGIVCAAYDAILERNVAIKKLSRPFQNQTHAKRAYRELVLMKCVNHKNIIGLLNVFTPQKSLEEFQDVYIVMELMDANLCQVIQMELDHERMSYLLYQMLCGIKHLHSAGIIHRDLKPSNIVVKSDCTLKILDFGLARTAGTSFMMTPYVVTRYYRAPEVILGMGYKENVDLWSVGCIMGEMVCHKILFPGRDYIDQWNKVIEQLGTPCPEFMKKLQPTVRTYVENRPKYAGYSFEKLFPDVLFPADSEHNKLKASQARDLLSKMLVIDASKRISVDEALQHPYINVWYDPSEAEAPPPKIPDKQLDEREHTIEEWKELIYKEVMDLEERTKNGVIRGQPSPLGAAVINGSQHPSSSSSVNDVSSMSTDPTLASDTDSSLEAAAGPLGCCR
Briefly: JNK1 biochemical assays (one or more of: time resolved fluorescence, Z'-LYTE Cascade, radioactive). Conditions: Table 2; JNK1 IC50 activity level; read-out: Act. Level.
Turning to `NC(=O)c1cnc(N[C@@H]2CCc3cccnc3C2)nc1N[C@@H]1CCC[C@H](O)C1` [Example B-88, 4-((1R,3S)-3-hydroxycyclohexylamino)-2-((R)-5,6,7,8-tetrahydroquinolin-7-ylamino)pyrimidine-5-carboxamide], the IC50 was under 200 nM. In the case of `COc1ccc(Nc2ncc(C(N)=O)c(Nc3ccccc3)n2)cc1F` [Example B-27, 2-(3-fluoro-4-methoxyphenylamino)-4-(phenylamino)pyrimidine-5-carboxamide], the IC50 is under 200 nM.

Regarding `NC(=O)c1cnc(NCc2ccco2)nc1Nc1ccccc1` [Example B-65, 2-(furan-2-ylmethylamino)-4-(phenylamino)pyrimidine-5-carboxamide], the IC50 lay in the range of 1000 to 10000 nM. On to `NC(=O)c1cnc(N[C@H]2CCc3ncccc3C2)nc1N[C@@H]1CCC[C@H](O)C1` [Example B-77, 4-((1R,3S)-3-hydroxycyclohexylamino)-2-((S)-5,6,7,8-tetrahydroquinolin-6-ylamino)pyrimidine-5-carboxamid], for which the IC50 is under 200 nM. As to `COc1cc(Nc2ncc(C(N)=O)c(Nc3ccccc3)n2)cc(OC)c1OC` [Example B-19, 4-(phenylamino)-2-(3,4,5-trimethoxyphenylamino)pyrimidine-5-carboxamide], the IC50 was under 200 nM.

Staying with this experiment, now noted: Table 3; JNK1 IC50 activity level; read-out: Act. Level.
For `N#Cc1cnc(N[C@H]2CC[C@H](O)CC2)nc1NC12CC(C1)C2` [Example C-61, 4-(bicyclo[1.1.1]pentan-1-ylamino)-2-((1r,4r)-4-hydroxycyclohexylamino) pyrimidine-5-carbonitrile], the IC50 fell in the range of 200 to 800 nM. Same read-out and setting: the same measure for `CCO[C@H]1CC[C@H](Nc2ncc(C#N)c(N[C@@H]3CCOC3)n2)CC1` [Example C-39, 2-((1r,4R)-4-ethoxycyclohexylamino)-4-((R)-tetrahydrofuran-3-ylamino)pyrimidine-5-carbonitrile]: 1000 to 10000 nM; for `C[C@@H]1CC[C@@H](Nc2nc(N[C@H]3CC[C@H](O)CC3)ncc2C#N)C[C@H]1O` [Example C-48, 4-((1R,3R,4R)-3-hydroxy-4-methylcyclohexylamino)-2-((1r,4R)-4-hydroxycyclohexylamino) pyrimidine-5-carbonitrile]: under 200 nM. With `CO[C@H]1CC[C@H](Nc2ncc(C#N)c(N[C@H]3CCCC[C@@](C)(O)C3)n2)CC1` [Example C-52, 4-((1S,3R)-3-hydroxy-3-methylcycloheptylamino)-2-((1r,4S)-4-methoxycyclohexylamino) pyrimidine-5-carbonitrile], the IC50 is under 200 nM.

Staying with this experiment, now noted: one or more of the JNK1 biochemical assays; read-out: Act. Level (JNK1 IC50 activity level).
Consider `NC(=O)c1cnc(N[C@H]2CC[C@H](O)CC2)nc1NCCC1CCC1` [Example 219, 4-(2-cyclobutylethylamino)-2-((1r,4r)-4-hydroxycyclohexylamino)pyrimidine-5-carboxamide], for which the IC50 was under 200 nM.

As for `CC12CC(Nc3nc(N[C@H]4CC[C@H](OC5CC5)CC4)ncc3C(N)=O)(C1)C2` [Example 442, 2-((1r,4r)-4-cyclopropoxycyclohexylamino)-4-(3-methylbicyclo[1.1.1]pentan-1-ylamino)pyrimidine-5-carboxamide], the IC50 is under 200 nM. The same measure, in the same setting: the same measure for `CCNc1ncc(C(N)=O)c(N[C@@H]2CC[C@@H](C)[C@H](O)C2)n1` [Example 494, 2-(ethylamino)-4-((1R,3R,4R)-3-hydroxy-4-methylcyclohexylamino)pyrimidine-5-carboxamide]: under 200 nM. As for `C[C@@H]1CC[C@@H](Nc2nc(NC3CCOCC3)ncc2C(N)=O)C[C@H]1O` [Example 208, 4-((1R,3R,4R)-3-hydroxy-4-methylcyclohexylamino)-2-(tetrahydro-2H-pyran-4-ylamino)pyrimidine-5-carboxamide], the IC50 was under 200 nM.

Consider `CC1(C)CCC(Nc2nc(NC34CC(C3)C4)ncc2C(N)=O)CC1O` (stereo not drawn) [Example 427, 2-(bicyclo[1.1.1]pentan-1-ylamino)-4-(3-hydroxy-4,4-dimethylcyclohexylamino)pyrimidine-5-carboxamide], for which the IC50 is 200 to 800 nM. As for `NC(=O)c1cnc(N[C@H]2CCCOC2)nc1NC12CC(C1)C2` [Example 405, (S)-4-(bicyclo[1.1.1]pentan-1-ylamino)-2-(tetrahydro-2H-pyran-3-ylamino)pyrimidine-5-carboxamide], the IC50 was under 200 nM. In the case of `CO[C@H]1CC[C@H](Nc2ncc(C(N)=O)c(NC3CCC3C)n2)CC1` (stereo partly drawn) [Example 242, 2-((1r,4r)-4-methoxycyclohexylamino)-4-(2-methylcyclobutylamino)pyrimidine-5-carboxamide], the IC50 is under 200 nM.

As to `CCO[C@H]1CC[C@H](Nc2ncc(C(N)=O)c(NC(C)(C)CO)n2)CC1` [Example 309, 2-((1r,4r)-4-ethoxycyclohexylamino)-4-(1-hydroxy-2-methylpropan-2-ylamino)pyrimidine-5-carboxamide], the IC50 is under 200 nM.

On to `NC(=O)c1cnc(NC2CCC2)nc1N[C@@H]1CCCC[C@H](O)C1` [Example 339, 2-(cyclobutylamino)-4-((1R,3S)-3-hydroxycycloheptylamino)pyrimidine-5-carboxamide], for which the IC50 is under 200 nM.

In the case of `C[C@@H]1CC[C@@H](Nc2nc(NC3CC(F)(F)C3)ncc2C(N)=O)C[C@H]1O` [Example 444, 2-(3,3-difluorocyclobutylamino)-4-((1R,3R,4R)-3-hydroxy-4-methylcyclohexylamino)pyrimidine-5-carboxamide], the IC50 is under 200 nM. The same measure, in the same setting: the same measure for `CC(C)(C)CNc1nc(N[C@H]2CC[C@H](O)CC2)ncc1C(N)=O` [Example 228, 2-((1r,4r)-4-hydroxycyclohexylamino)-4-(neopentylamino)pyrimidine-5-carboxamide]: under 200 nM. As to `CC(C)(C)Nc1nc(N[C@@H]2CCCOC2)ncc1C(N)=O` [Example 301, (R)-4-(tert-butylamino)-2-(tetrahydro-2H-pyran-3-ylamino)pyrimidine-5-carboxamide], the IC50 was under 200 nM. With `CC1(C)CCC(Nc2nc(NC3CCC3)ncc2C(N)=O)CC1O` (stereo not drawn) [Example 428, 2-(cyclobutylamino)-4-(3-hydroxy-4,4-dimethylcyclohexylamino)pyrimidine-5-carboxamide], the IC50 is under 200 nM.

In the case of `CC1(Nc2nc(N[C@@H]3CCC[C@H](O)C3)ncc2C(N)=O)CCC1` [Example 404, 2-((1R,3S)-3-hydroxycyclohexylamino)-4-(1-methylcyclobutylamino)pyrimidine-5-carboxamide], the IC50 was under 200 nM. For the compound `CO[C@H]1CC[C@H](Nc2ncc(C(N)=O)c(NC(C)(C)C(C)(C)C)n2)CC1` [Example 333, 2-((1r,4r)-4-methoxycyclohexylamino)-4-(2,3,3-trimethylbutan-2-ylamino)pyrimidine-5-carboxamide], the IC50 was under 200 nM. As to `CC(C)(C)Nc1nc(N[C@H]2CC[C@@](C)(O)CC2)ncc1C(N)=O` [Example 371, 4-(tert-butylamino)-2-((1s,4s)-4-hydroxy-4-methylcyclohexylamino)pyrimidine-5-carboxamide], the IC50 is under 200 nM. For the compound `CC1(Nc2ncc(C(N)=O)c(N[C@@H]3CCCC[C@H](O)C3)n2)CCC1` [Example 352, 4-((1R,3S)-3-hydroxycycloheptylamino)-2-(1-methylcyclobutylamino)pyrimidine-5-carboxamide], the IC50 was under 200 nM. The same measure, in the same setting: the same measure for `CCO[C@H]1CC[C@H](Nc2ncc(C(N)=O)c(N[C@H](C)C3CC3)n2)CC1` [Example 411, 4-((R)-1-cyclopropylethylamino)-2-((1r,4R)-4-ethoxycyclohexylamino)pyrimidine-5-carboxamide]: under 200 nM; for `CC(C)(C)Nc1nc(N[C@H]2CCC[C@@H](O)C2)ncc1C(N)=O` [Example 306, 4-(tert-butylamino)-2-((1S,3R)-3-hydroxycyclohexylamino)pyrimidine-5-carboxamide]: under 200 nM; for `NC(=O)c1cnc(NC2CC2)nc1N[C@@H]1CCCC[C@H](O)C1` [Example 377, 2-(cyclopropylamino)-4-((1R,3S)-3-hydroxycycloheptylamino)pyrimidine-5-carboxamide]: under 200 nM.

Staying with this experiment, now noted: tested in one or more of the JNK1 biochemical assays; read-out: Act. Level (JNK1 biochemical assay IC50 activity level).
Turning to `CC1(Nc2ncc(C(N)=O)c(N[C@@H]3CCC[C@H](O)C3)n2)CCOCC1` [Example A-151, 4-((1R,3S)-3-hydroxycyclohexylamino)-2-(4-methyltetrahydro-2H-pyran-4-ylamino)pyrimidine-5-carboxamide], the IC50 is under 200 nM. Take `CO[C@H]1CC[C@H](Nc2ncc(C(N)=O)c(N[C@H]3CCNC(=O)C3)n2)CC1` [Example A-25, 2-((1r,4S)-4-methoxycyclohexylamino)-4-((S)-2-oxopiperidin-4-ylamino)pyrimidine-5-carboxamide]: the IC50 is under 200 nM.

In the case of `NC(=O)c1cnc(N[C@H]2CC[C@H](O)CC2)nc1NC1CCC1` [Example A-176, 4-(cyclobutylamino)-2-((1r,4r)-4-hydroxycyclohexylamino)pyrimidine-5-carboxamide], the IC50 was under 200 nM. On the same count and under the same terms, the same measure for `CCC(=O)N[C@H]1CC[C@@H](Nc2nc(NC3CCCC3)ncc2C(N)=O)CC1` [Example A-129, 2-(cyclopentylamino)-4-((1s,4s)-4-propionamidocyclohexylamino)pyrimidine-5-carboxamide]: 200 to 800 nM; for `CC(C)Nc1ncc(C(N)=O)c(N[C@H]2CC[C@@H](NC(=O)C(C)C)CC2)n1` [Example A-142, 4-((1s,4s)-4-isobutyramidocyclohexylamino)-2-(isopropylamino)pyrimidine-5-carboxamide]: 200 to 800 nM. Regarding `CC[C@@H](C)Nc1nc(N[C@H]2CC[C@H](O)CC2)ncc1C(N)=O` [Example A-189, 4-(sec-butylamino)-2-((1r,4R)-4-hydroxycyclohexylamino)pyrimidine-5-carboxamide], the IC50 is under 200 nM.

As to `CCO[C@H]1CC[C@H](Nc2ncc(C(N)=O)c(NC3CCC[C@H]3O)n2)CC1` (stereo partly drawn) [Example A-66, 2-((1r,4R)-4-ethoxycyclohexylamino)-4-((1R,2R)-2-hydroxycyclopentylamino)pyrimidine-5-carboxamide], the IC50 was under 200 nM.
